Reference: the supplement of paper PMC10307832

How the values were obtained:
Assay in all cases: relative viability (nuclei count vs DMSO), 5 days (fraction); higher = more cells survive
SGI-1776 + Alpelisib = compound: CN1CCC(CNc2ccc3ncc(-c4cccc(OC(F)(F)F)c4)n3n2)CC1 [SGI-1776] + Cc1nc(NC(=O)N2CCC[C@H]2C(N)=O)sc1-c1ccnc(C(C)(C)C(F)(F)F)c1 [Alpelisib] (partner 2 µM)
How it was run: (§1)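 Lung cancer cell lines in 1536-well plates were dosed by pin tool the day after seeding, either with one drug alone or with a fixed anchor-drug dose plus five library-drug doses (not always all listed) in √10 steps. After 5 days, cells were fixed and their nuclei stained in one step (final 0.05% Triton X-100, 1% formaldehyde, 1 ug/ml Hoechst), then counted on 4× images. Relative viability is the nuclei count in treated wells divided by that in vehicle wells. Values are medians of duplicate plates.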

Entinostat + Lapatinib = compound: Nc1ccccc1NC(=O)c1ccc(CNC(=O)OCc2cccnc2)cc1 [Entinostat] + CS(=O)(=O)CCNCc1ccc(-c2ccc3ncnc(Nc4ccc(OCc5cccc(F)c5)c(Cl)c4)c3c2)o1 [Lapatinib] (partner 2 µM)
How it was run: as §1

[1] = compound: C1COCCN1C2=NC(=NC3=C2OC4=C3C=CC=N4)C5=CC(=CC=C5)NC(=O)C6=CN=C(C=C6)N + CC1(C)CCC(c2ccc(Cl)cc2)=C(CN2CCN(c3ccc(C(=O)NS(=O)(=O)c4ccc(N[C@H](CCN5CCOCC5)CSc5ccccc5)c(S(=O)(=O)C(F)(F)F)c4)cc3)CC2)C1 [Navitoclax] (partner 0.5 µM)
How it was run: as §1

[2] = compound: C1COCCN1C2=NC(=NC3=C2OC4=C3C=CC=N4)C5=CC(=CC=C5)NC(=O)C6=CN=C(C=C6)N + COc1cc2c(Oc3ccc(NC(=O)C4(C(=O)Nc5ccc(F)cc5)CC4)cc3F)ccnc2cc1OCCCN1CCOCC1 [Foretinib] (partner 0.25 µM)
How it was run: as §1

UMC-11
relative viability (SGI-1776 + Alpelisib; first compound 0.08 µM): 0.888 | relative viability (SGI-1776 + Alpelisib; first compound 0.8 µM): 1 | relative viability (SGI-1776 + Alpelisib; first compound 2.53 µM): 0.828 | relative viability (SGI-1776 + Alpelisib; first compound 8 µM): 0.671 | relative viability (Entinostat + Lapatinib; first compound 0.02 µM): 1.17 | relative viability (Entinostat + Lapatinib; first compound 0.06325 µM): 1.21 | relative viability (Entinostat + Lapatinib; first compound 0.2 µM): 1.28 | relative viability (Entinostat + Lapatinib; first compound 0.6325 µM): 0.222 | relative viability (Entinostat + Lapatinib; first compound 2 µM): 0.173 | relative viability ([1]; first compound 0.02 µM): 0.278 | relative viability ([1]; first compound 0.06325 µM): 0.292 | relative viability ([1]; first compound 0.2 µM): 0.266 | relative viability ([1]; first compound 0.6325 µM): 0.284 | relative viability ([1]; first compound 2 µM): 0.246 | relative viability ([2]; first compound 0.02 µM): 1.05 | relative viability ([2]; first compound 0.06325 µM): 1.08 | relative viability ([2]; first compound 0.2 µM): 1.21 | relative viability ([2]; first compound 0.6325 µM): 1.19 | relative viability ([2]; first compound 2 µM): 0.871
